# Target: recombinant Human Phosphodiesterase B2 (PDE4B2) (Homo sapiens, UniProt Q07343)
# Assay: Human Phosphodiesterase B2 Radiometric Assay (yttrium silicate SPA beads, [3H]cyclic AMP)
# Assay type: biochemical
# Details: recombinant human PDE4B2, radiometric SPA assay, 8 nM [3H]cyclic AMP; read-out: PDE4B2 pIC50 (converted)
# Procedure, shortened: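 Read-out is scintillation proximity: yttrium silicate beads (with 18 mM ZnSO4, added to stop the reaction) bind 5′AMP formed from 8 nM [3H]cAMP over 20 min. Beforehand, compound and 0.1 mg/mL enzyme were preincubated 30 min at 30 °C in pH 7.5 HEPES buffer with MgCl2, EGTA and Brij 35; pIC50 values were curve-fitted.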
# Sequence of recombinant Human Phosphodiesterase B2 (PDE4B2) (Q07343 1-564 isoform Q07343-2): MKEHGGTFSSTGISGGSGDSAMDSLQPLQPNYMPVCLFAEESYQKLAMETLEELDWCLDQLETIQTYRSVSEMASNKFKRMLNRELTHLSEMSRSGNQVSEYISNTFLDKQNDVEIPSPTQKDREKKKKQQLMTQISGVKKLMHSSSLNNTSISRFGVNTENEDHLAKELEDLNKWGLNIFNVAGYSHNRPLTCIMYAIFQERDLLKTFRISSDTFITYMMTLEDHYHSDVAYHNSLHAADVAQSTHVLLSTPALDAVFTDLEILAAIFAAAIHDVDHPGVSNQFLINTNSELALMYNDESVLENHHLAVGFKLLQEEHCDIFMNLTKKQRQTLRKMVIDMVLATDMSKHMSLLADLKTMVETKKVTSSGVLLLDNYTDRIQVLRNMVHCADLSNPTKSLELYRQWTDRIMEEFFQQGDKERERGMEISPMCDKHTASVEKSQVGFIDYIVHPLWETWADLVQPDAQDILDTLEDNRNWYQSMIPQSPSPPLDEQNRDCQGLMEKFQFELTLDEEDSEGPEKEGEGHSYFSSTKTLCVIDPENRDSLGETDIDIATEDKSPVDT
row,IC50,SMILES
1,50.1 nM,"CN(C)Cc1ccccc1-c1cccc(-n2c(=O)n([C@H]3CC[C@@H](NC(=O)[C@H]4CCCN4C)CC3)c(=O)c3cc(F)cnc32)c1 [Example 88, N-{cis-4-[1-{2′-[(dimethylamino)methyl]biphenyl-3-yl}-6-fluoro-2,4-dioxo-1,4-dihydropyrido[2,3-d]pyrimidin-3(2H)-yl]cyclohexyl}-1-methyl-D-prolinamide]"
2,2 nM,"CC(=O)N[C@H]1CC[C@@H](n2c(=O)c3cc(F)cnc3n(-c3cccc(-c4ccc(CN(C)C)cc4)c3)c2=O)CC1 [Example 89, N-{cis-4-[1-{4′-[(dimethylamino)methyl]biphenyl-3-yl}-6-fluoro-2,4-dioxo-1,4-dihydropyrido[2,3-d]pyrimidin-3(2H)-yl]cyclohexyl}acetamide]"
3,1.26 nM,"CN(Cc1ccccc1)C(=O)c1cccc(-n2c(=O)n([C@H]3CC[C@@H](NC(=O)c4cn5cc(F)ccc5n4)CC3)c(=O)c3cc(F)cnc32)c1 [Example 90, N-{cis-4-[1-(3-{[benzyl(methyl)amino]carbonyl}phenyl)-6-fluoro-2,4-dioxo-1,4-dihydropyrido[2,3-d]pyrimidin-3(2H)-yl]cyclohexyl}-6-fluoroimidazo[1,2-a]pyridine-2-carboxamide]"
4,7.94 nM,"N[C@H]1CC[C@@H](n2c(=O)c3cc(F)cnc3n(-c3cccc(C(=O)O)c3)c2=O)CC1 [Example 91, 3-[3-(cis-4-aminocyclohexyl)-6-fluoro-2,4-dioxo-3,4-dihydropyrido[2,3-d]pyrimidin-1(2H)-yl]benzoic acid]"
5,0.631 nM,"O=C(NCc1ccccc1)c1cccc(-n2c(=O)n([C@H]3CC[C@@H](NC(=O)c4cn5cc(F)ccc5n4)CC3)c(=O)c3cc(F)cnc32)c1 [Example 92, N-{cis-4-[1-{3-[(benzylamino)carbonyl]phenyl}-6-fluoro-2,4-dioxo-1,4-dihydropyrido[2,3-d]pyrimidin-3(2H)-yl]cyclohexyl}-6-fluoroimidazo[1,2-a]pyridine-2-carboxamide]"
6,5.01 nM,"CN(C)CCCC(=O)N[C@H]1CC[C@@H](n2c(=O)c3cc(F)cnc3n(-c3cccc(-c4ccccc4)c3)c2=O)CC1 [Example 93, N-[cis-4-(1-biphenyl-3-yl-6-fluoro-2,4-dioxo-1,4-dihydropyrido[2,3-d]pyrimidin-3(2H)-yl)cyclohexyl]-4-(dimethylamino)butanamide]"
7,0.316 nM,"CN(C)Cc1ccc(-c2cccc(-n3c(=O)n([C@H]4CC[C@@H](NC(=O)c5cn6cc(F)ccc6n5)CC4)c(=O)c4cc(F)cnc43)c2)c(O)c1 [Example 94, N-{cis-4-[1-{4′-[(dimethylamino)methyl]-2′-hydroxybiphenyl-3-yl}-6-fluoro-2,4-dioxo-1,4-dihydropyrido[2,3-d]pyrimidin-3(2H)-yl]cyclohexyl}-6-fluoroimidazo[1,2-a]pyridine-2-carboxamide]"
8,0.02 nM,"CC(C)NCCCc1ccc(-c2cccc(-n3c(=O)n([C@H]4CC[C@@H](NC(=O)c5cn6cc(F)ccc6n5)CC4)c(=O)c4cc(F)cnc43)c2)cc1 [Example 95, 6-fluoro-N-{cis-4-[6-fluoro-1-{4′-[3-(isopropylamino)propyl]biphenyl-3-yl]-2,4-dioxo-1,4-dihydropyrido[2,3-d]pyrimidin-3(2H)-yl]cyclohexyl}imidazo[1,2-a]pyridine-2-carboxamide]"
9,0.0126 nM,"O=C(N[C@H]1CC[C@@H](n2c(=O)c3cc(F)cnc3n(-c3cccc(-c4ccc(CCCNCCCO)cc4)c3)c2=O)CC1)c1cn2cc(F)ccc2n1 [Example 96, 6-fluoro-N-{cis-4-[6-fluoro-1-(4′-{3-[(3-hydroxypropyl)amino]propyl}biphenyl-3-yl)-2,4-dioxo-1,4-dihydropyrido[2,3-d]pyrimidin-3(2H)-yl]cyclohexyl}imidazo[1,2-a]pyridine-2-carboxamide]"
10,0.00631 nM,"O=C(N[C@H]1CC[C@@H](n2c(=O)c3cc(F)cnc3n(-c3cccc(-c4ccc(CCCN5CCNCC5)cc4)c3)c2=O)CC1)c1cn2cc(F)ccc2n1 [Example 97, 6-fluoro-N-{cis-4-[6-fluoro-2,4-dioxo-1-[4′-(3-piperazin-1-ylpropyl)biphenyl-3-yl]-1,4-dihydropyrido[2,3-d]pyrimidin-3(2H)-yl]cyclohexyl}imidazo[1,2-a]pyridine-2-carboxamide]"
11,0.126 nM,"CC(C)NCCc1ccc(-c2cccc(-n3c(=O)n([C@H]4CC[C@@H](NC(=O)c5cn6cc(F)ccc6n5)CC4)c(=O)c4cc(F)cnc43)c2)cc1 [Example 98, 6-fluoro-N-{cis-4-[6-fluoro-1-{4′-[2-(isopropylamino)ethyl]biphenyl-3-yl}-2,4-dioxo-1,4-dihydropyrido[2,3-d]pyrimidin-3(2H)-yl]cyclohexyl}imidazo[1,2-a]pyridine-2-carboxamide]"
12,0.126 nM,"CN(C)CCc1ccc(-c2cccc(-n3c(=O)n([C@H]4CC[C@@H](NC(=O)c5cn6cc(F)ccc6n5)CC4)c(=O)c4cc(F)cnc43)c2)cc1 [Example 99, N-{cis-4-[1-{4′-[2-(dimethylamino)ethyl]biphenyl-3-yl}-6-fluoro-2,4-dioxo-1,4-dihydropyrido[2,3-d]pyrimidin-3(2H)-yl]cyclohexyl}-6-fluoroimidazo[1,2-a]pyridine-2-carboxamide]"
13,0.00794 nM,"CN1CCN(CCc2ccc(-c3cccc(-n4c(=O)n([C@H]5CC[C@@H](NC(=O)c6cn7cc(F)ccc7n6)CC5)c(=O)c5cc(F)cnc54)c3)cc2)CC1 [Example 100, 6-fluoro-N-{cis-4-[6-fluoro-1-{4′-[2-(4-methylpiperazin-1-yl)ethyl]biphenyl-3-yl}-2,4-dioxo-1,4-dihydropyrido[2,3-d]pyrimidin-3(2H)-yl]cyclohexyl}imidazo[1,2-a]pyridine-2-carboxamide]"
14,0.1 nM,"CN(CCc1ccc(-c2cccc(-n3c(=O)n([C@H]4CC[C@@H](NC(=O)c5cn6cc(F)ccc6n5)CC4)c(=O)c4cc(F)cnc43)c2)cc1)C(C)(C)C [Example 101, N-{cis-4-[1-(4′-{2-[tert-butyl(methyl)amino]ethyl}biphenyl-3-yl)-6-fluoro-2,4-dioxo-1,4-dihydropyrido[2,3-d]pyrimidin-3(2H)-yl]cyclohexyl}-6-fluoroimidazo[1,2-a]pyridine-2-carboxamide]"
15,0.00794 nM,"O=C(N[C@H]1CC[C@@H](n2c(=O)c3cc(F)cnc3n(-c3cccc(-c4ccc(CCN5CCNCC5)cc4)c3)c2=O)CC1)c1cn2cc(F)ccc2n1 [Example 102, 6-fluoro-N-{cis-4-[6-fluoro-2,4-dioxo-1-[4′-(2-piperazin-1-ylethyl)biphenyl-3-yl]-1,4-dihydropyrido[2,3-d]pyrimidin-3 (2H)-yl]cyclohexyl}imidazo[1,2-c]pyridine-2-carboxamide]"
16,0.00158 nM,"O=C(N[C@H]1CC[C@@H](n2c(=O)c3cc(F)cnc3n(-c3cccc(-c4ccc(O)cc4CN4CCOCC4)c3)c2=O)CC1)c1cn2cc(F)ccc2n1 [Example 103, 6-fluoro-N-{cis-4-[6-fluoro-1-[4′-hydroxy-2′-(morpholin-4-ylmethyl)biphenyl-3-yl]-2,4-dioxo-1,4-dihydropyrido[2,3-d]pyrimidin-3(2H)-yl]cyclohexyl}imidazo[1,2-a]pyridine-2-carboxamide]"
17,0.00316 nM,"CN(C)Cc1cc(O)ccc1-c1cccc(-n2c(=O)n([C@H]3CC[C@@H](NC(=O)c4cn5cc(F)ccc5n4)CC3)c(=O)c3cc(F)cnc32)c1 [Example 104, N-{cis-4-[1-{2′-[(dimethylamino)methyl]-4′-hydroxybiphenyl-3-yl}-6-fluoro-2,4-dioxo-1,4-dihydropyrido[2,3-d]pyrimidin-3(2H)-yl]cyclohexyl}-6-fluoroimidazo[1,2-a]pyridine-2-carboxamide]"
